# Laboratory results from patent publication US20210147811A1, “METHODS FOR IN VITRO EXPANSION OF ADULT TISSUE STEM CELLS” (CEDARS-SINAI MEDICAL CENTER, priority 2018, published 2021).
# Legend:
# [1] = tested on: freshly isolated murine distal total epithelial cells; assay: 3D organoid culture of freshly isolated murine distal total epithelial cells; type: cell-based
# Excerpt: (§1) FIG. 1. Experimental design. Preconditioning of donor cells, including addition of small molecules such as ROCK inhibitor, pifithrin α, or combined together, and generation of organoids.
# FIG. 3. […] Addition of the TGF-β inhibitor, SB 431542 to the culture medium increases the % colony forming efficiency of freshly isolated murine lung epithelial cells. Addition of Pifithrin α causes an increase in organoids size, while addition of ROCKi causes an increase in the colony forming efficiency.
# FIG. 13. Effect of p53 and ROCKi inhibition on murine freshly isolated distal total epithelial cells in (+SB431542). Addition of both ROCKi and Pifithrin alpha (in presence of SB431542) increases the colony forming efficiency of freshly isolated murine distal total epithelial cells (isolated from the lung without trachea). […] Pifithrin alpha also causes an increase in the size of the organoids (C). […] The drop in mean diameter of the Pifithrin alpha+ROCKi group is likely due to space constraints because of the large number of organoids per well.
# Further described herein is a cell culture including a quantity of human stem cells, or stem cell derived cells in a cell culture media including at least one molecule including: a RHO-kinase (ROCK) inhibitor, SMAD inhibitor, and p53 inhibitor. In other embodiments, the RHO-kinase inhibitor is Y27632 and the p53 inhibitor is Pifithrin α. In other embodiments, the stem cells are adult stem cells. In other embodiments, the stem cell derived cells are lung epithelial cells. In various embodiments, the aforementioned inhibitors are at a concentration of 0.1-1 uM, 1-5 uM, 5-10 uM, 10-25 uM, 25-50 uM, or 50 uM or more. In various embodiments, the p53 inhibitor is Pifithrin-alpha. For example, this includes a media formulated as follows: 5 mL FBS, 500 uL ITS (100×), 50 uL Fungizone, 500 uL Pen/Strep (100×), DMEM/F12 up to 50 mL, 5 uL SB431542, Pifithrin-alpha 10 uM, ROCKi (Y-27632 dihydrochloride)—10 uM. Also described herein is a quantity of organoids including cells made by the aforementioned methods. In various embodiments, the organoids include proximal and/or distal cells. In various embodiments, the distal cells are alveolar type II progenitors and/or Scgb1a1 positive club progenitor cells.
# [2] = tested on: freshly isolated alveolar type II cells; assay: Organoid culture of lineage labelled murine alveolar type II cells; type: cell-based; settings: GFP+ alveolar type II cells, in presence of SB431542
# Excerpt: FIG. 15. Effect of ROCK and P53 inhibition on lineage labelled murine alveolar type II cells. GFP^+ alveolar type II cells were isolated from tamoxifen treated SPC-CreER/ROSARG mice. Addition of both ROCKi and Pifithrin alpha (in presence of SB431542) increases the colony forming efficiency of freshly isolated alveolar typeII cells (regional stem cells which maintain the epithelium of the air sacs in the lung). The effect is synergistic for their combined use, similar to that seen for total distal epithelial cells in the previous figures.
# ROCKi increases the colony forming efficiency when murine distal total epithelial cells (isolated from the lung without trachea) are pre-cultured on collagen coated plates for 24 hrs prior after initial isolation. The effect on size is more pronounced when cells are precultured for 24 hrs on collagen coated plates after initial isolation. The drop in CFE in the Pifithrin alpha+ROCKi group is likely due space and nutrient availability constraints due to the large number of organoids per well. Addition of both ROCKi and Pifithrin alpha (in presence of SB431542) increases the colony forming efficiency of freshly isolated alveolar type II cells (regional stem cells which maintain the epithelium of the air sacs in the lung). The effect is synergistic for their combined use, similar to that seen for total distal epithelial cells in the previous figures.
# [3] = tested on: freshly isolated club cells; assay: Organoid culture of lineage labelled murine club cells; type: cell-based; settings: GFP+ club cells, in presence of SB431542
# Excerpt: FIG. 17. Effect of ROCK and P53 inhibition on lineage labelled murine club cells. GFP^+ club cells were isolated from tamoxifen treated Scgb1a1-CreER/ROSARG mice. Addition of ROCKi (in presence of SB431542) increases the colony forming efficiency of freshly isolated club cells (regional stem cells which maintain certain cell types in the bronchiolar epithelium) whereas addition of Pifithrin alpha (in presence of SB431542) increases the size of Scgb1a1-derived organoids.
# (§2) Distal progenitor cells were cultured as 3D organoids for 14 days in presence of Pifithrin-alpha, ROCKi and SB431542 followed by culture for 7 days in media without all three inhibitors. […] Addition of ROCKi (in presence of SB431542) increases the colony forming efficiency of freshly isolated club cells (regional stem cells which maintain certain cell types in the bronchiolar epithelium) whereas addition of Pifithrin alpha (in presence of SB431542) increases the size of Scgb1a1-derived organoids. Addition of both ROCKi (in presence of SB431542) increases the colony forming efficiency of freshly isolated murine proximal total epithelial cells (isolated from the murine trachea).
# [4] = tested on: freshly isolated murine proximal total epithelial cells; assay: Organoid culture of murine tracheal progenitor (basal) cells; type: cell-based
# Procedure: FIG. 18. Effect of ROCK and P53 inhibition on murine tracheal progenitor (basal) cells. Addition of both ROCKi (in presence of SB431542) increases the colony forming efficiency of freshly isolated murine proximal total epithelial cells (isolated from the murine trachea).
# as §2
# [5] = tested on: distal progenitor cells; assay: Differentiation potential of distal progenitors after 3D organoid culture with inhibitors; type: cell-based; settings: 14 days with Pifithrin-alpha, ROCKi and SB431542, then 7 days without inhibitors, PDPN and SPC staining
# Procedure: FIG. 16. […] Distal progenitor cells were cultured as 3D organoids for 14 days in presence of Pifithrin-alpha, ROCKi and SB431542 followed by culture for 7 days in media without all three inhibitors. […] DAPI (blue) is a nuclear stain.
# as §2
# [6] = tested on: freshly isolated cells; assay: Freshly isolated cells cultured with small molecules at different time points (proliferation); type: cell-based; settings: different time points (FIG. 2)
# Excerpt: as §1
# FIG. 2. Freshly isolated cells cultured with small molecules at different time points.
# [7] = biological target: T1, p53 (Homo sapiens, UniProt P04637); settings: cited from earlier work
# T1 construct: host or cells: neuronal cells (not further described)
# T1 sequence (P04637 whole entry, species assumed): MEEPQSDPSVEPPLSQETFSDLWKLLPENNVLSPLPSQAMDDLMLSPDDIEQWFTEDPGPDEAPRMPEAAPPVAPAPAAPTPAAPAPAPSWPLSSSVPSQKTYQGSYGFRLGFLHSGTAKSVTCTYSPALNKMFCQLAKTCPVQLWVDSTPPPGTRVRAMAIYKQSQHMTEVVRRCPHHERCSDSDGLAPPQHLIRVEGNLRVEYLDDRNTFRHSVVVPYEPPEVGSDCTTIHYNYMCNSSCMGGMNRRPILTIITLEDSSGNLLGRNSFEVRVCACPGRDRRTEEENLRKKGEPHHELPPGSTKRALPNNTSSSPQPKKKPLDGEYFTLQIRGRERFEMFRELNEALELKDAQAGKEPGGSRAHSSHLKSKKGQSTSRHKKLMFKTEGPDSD
# [8] = freshly isolated cells, in presence of SB431542 (FIG. 13)
smiles,measurement,setting,value
Cc1ccc(C(=O)Cn2c3c(sc2=N)CCCC3)cc1 [Pifithrin α],colony forming efficiency,[1]; [8],increases
same,size of the organoids (mean diameter),[1]; [8],increase
same,survival and proliferation of the stem cells (inferred from CFE and organoid size),"[1]; freshly isolated distal cells, FIG. 13",increase survival and proliferation
same,organoids size,[1]; freshly isolated murine lung epithelial cells (FIG. 3),increase
same,colony forming efficiency,[2],increases
same,size of the alveolar organoids,[2],does not increase
same,size of Scgb1a1-derived organoids,[3],increases
same,colony forming efficiency,"[4]; cells isolated from the murine trachea, in presence of SB431542",does not show a significant effect
same,survival of proximal and distal progenitors (inferred from colony forming ability),[4]; comparison of proximal and distal progenitor cell types,specific to distal stem cells
same,differentiation potential,[5]; listed as Pifithrin alpha,do not alter
same,differentiation potential,[5]; listed as Pifithrin-alpha,did not alter
same,proliferation of cells,[6],have an effect on proliferation
same,protection against p53-induced neuronal cell death,[7],protection
